# Experimental data taken from publication PMC4111740, “Ligand-Based Pharmacophore Modeling and Virtual Screening for the Discovery of Novel 17β-Hydroxysteroid Dehydrogenase 2 Inhibitors” (Journal of Medicinal Chemistry, 2014).
# Entries after “also recorded” stand apart in the source; their conditions may differ.
# Biological target: T1, 17β-HSD2 (Homo sapiens, UniProt P37059)
# T1 construct: expressed in transfected cells; host or cells: HEK-293 (transient, calcium phosphate), lysate
# T1 sequence (P37059 1-387): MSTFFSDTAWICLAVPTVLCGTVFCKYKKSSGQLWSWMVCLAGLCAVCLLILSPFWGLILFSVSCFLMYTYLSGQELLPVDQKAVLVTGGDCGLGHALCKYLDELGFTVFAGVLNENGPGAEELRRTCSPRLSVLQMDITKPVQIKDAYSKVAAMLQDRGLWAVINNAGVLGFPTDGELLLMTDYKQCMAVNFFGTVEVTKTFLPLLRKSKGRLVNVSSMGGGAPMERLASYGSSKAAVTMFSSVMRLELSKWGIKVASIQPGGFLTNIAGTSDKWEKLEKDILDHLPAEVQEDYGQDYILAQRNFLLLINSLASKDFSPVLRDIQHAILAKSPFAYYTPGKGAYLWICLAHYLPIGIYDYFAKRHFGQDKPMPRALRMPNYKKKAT
# Experiment: 17β-HSD2 activity in lysates of transfected HEK-293 cells (cell-free, radiolabeled estradiol)
# Assay type: biochemical
# Settings: Table S2, virtual screening hits, tested at 20 μM in lysates
# Protocol: Next, the 17β-HSD2 inhibitory activities of the chosen hits were evaluated in a cell-free assay. The activities were first determined at an inhibitor concentration of 20 μM using lysates of transfected HEK-293 cells. In all experiments, vehicle was included as negative control and N-(3-methoxyphenyl)-N-methyl-5-m-tolylthiophene-2-carboxamide (compound 19 from ref ([26])) as positive control.
# HEK-293 cells were transfected by the calcium phosphate precipitation method with plasmids for human 17β-HSD1, 17β-HSD2, or 11β-HSD2. Cells were cultivated for 48 h, washed with phosphate-buffered saline, and centrifuged for 4 min at 150g. After removal of the supernatants, cell pellets were snap frozen in dry ice and stored at −80 °C until further use.
# Lysates of human embryonic kidney cells (HEK-293) expressing either 17β-HSD1 or 17β-HSD2 were incubated for 10 min at 37 °C in TS2 buffer in a final volume of 22 μL containing either solvent (0.2% DMSO/chloroform) or the inhibitor at the respective concentration. N-(3-Methoxyphenyl)-N-methyl-5-m-tolylthiophene-2-carboxamide (compound 19 in ref ([26])) and apigenin[50] were used as positive controls for 17β-HSD1 and 17β-HSD2, respectively, in all experiments. 17β-HSD1 activity was measured in the presence of 190 nM unlabeled estrone, 10 nM radiolabeled estrone, and 500 μM NADPH. In contrast, 17β-HSD2 activity was determined in the presence of 190 nM unlabeled estradiol, 10 nM radiolabeled estradiol, and 500 μM NAD^+. Reactions were stopped after 10 min by adding an excess of unlabeled estradiol and estrone (1:1, 2 mM in methanol). Possible promiscuous enzyme inhibition by aggregate formation of the chemicals was excluded by measuring the inhibition of the enzyme activity by the compounds in the presence of 0.1% Triton X-100.[36] […] To exclude irreversible inhibition by the compounds investigated,[35] cell lysates were preincubated with the compounds for 0, 10, and 30 min, respectively, followed by measurement of the enzyme activity. […] The steroids were separated by TLC, followed by scintillation counting and calculation of substrate concentration. Data were collected from at least three independent measurements.
row,17β-HSD2 Activity (in words),SMILES
1,Inactive,CN(C)Cc1ccccc1Sc1ccc(O)cc1O [AE-641/30109032]
2,Inactive,O=C(Cn1nnc2ccccc21)N/N=C/c1ccccc1F [AG-205/07947037]
3,Inactive,COc1ccccc1NC(=O)CCC(=O)OC(C)C(=O)c1ccccc1 (stereo not drawn) [AG-690/15435864]
4,Inactive,CCn1c(Cc2ccccc2)nnc1SCC(=O)Nc1ccccc1OC [AG-690/40750820]
5,Inactive,COc1ccccc1NC(=O)COc1ccc(/C=c2/sc3n(c2=O)CCN=3)cc1 [AH-487/15020191]
6,Inactive,CCCC(=O)Nc1ccc(C(=O)NCc2ccc(OC)cc2)cc1 [AJ-292/42647512]
7,Inactive,O=C(Cn1nnc2ccccc21)c1ccc(-c2ccccc2)cc1 [AK-918/11592002]
8,Inactive,COc1ccc(C(=O)COC(=O)c2ccc(O)cc2)cc1 [AK-918/12108002]
9,Inactive,O=C(COC(=O)c1ccc2c(c1)C(=O)N(c1cccc(O)c1)C2=O)c1ccccc1 [AK-918/37182008]
10,Inactive,Cc1ccccc1/C=N/NC(=O)Cn1nnc2ccccc21 [AK-968/11367105]
11,Inactive,COc1ccccc1NCC(=O)N/N=C/c1sccc1C [AN-329/11413636]
12,Inactive,COc1cc(C=Nc2ccc(OC(F)(F)F)cc2)ccc1O [AN-329/11450193]
13,Inactive,O=C(COc1ccc(-c2ccccc2)cc1)Nc1ccccc1C(=O)NC1CCCCC1 [AN-329/42613159]
14,Inactive,COc1ccc(OC)c(NC(=O)C(C)Oc2ccc(-c3ccccc3)cc2)c1 (stereo not drawn) [AN-329/42958201]
15,Inactive,Oc1cccc(C(O)CNCc2ccncc2)c1 (stereo not drawn) [AN-465/42246299]
16,Inactive,COC(=O)c1cc(NC(=O)c2ccc(OC)cc2)ccc1O [AN-652/43163172]
17,Inactive,O=C(Nc1ccc(O)cc1)c1ccc2c(c1)C(=O)N(Cc1ccco1)C2=O [AN-979/41971109]
18,Inactive,O=C(CSc1ccccc1)Nc1ccc(C(=O)Nc2ccc(O)cc2)cc1 [AN-979/42723474]
19,Inactive,COc1cc(C(=O)Nc2cc(C(F)(F)F)ccc2N2CCOCC2)ccc1O [AP-906/41927951]
20,Inactive,Oc1ccc(-c2cn3cc(C(F)(F)F)ccc3n2)cc1 [AQ-776/42801516]

# Same assay, conditions: relative to compound 12
row,less potent than the most active hit (17β-HSD2) [fold],SMILES
1,5,O=C(CSc1nccc(O)n1)Nc1cccc2nsnc12 [Compound 15]

# Biological target: T1, 17β-HSD2
# Experiment: 17β-HSD2 activity in intact transfected HEK-293 cells
# Assay type: cell-based
# Settings: intact HEK-293 cells
# Protocol: (§1) Human embryonic kidney cells (HEK-293) were cultivated in DMEM containing 4.5 g/L glucose, 10% fetal bovine serum, 100 U/mL penicillin, 0.1 mg/mL streptomycin, 1× MEM nonessential amino acids, and 10 mM HEPES buffer, pH 7.4. The cells were incubated at 37 °C until 80% confluency. The cells were transfected using the calcium phosphate method with expression plasmids for 17β-HSD2 and 17β-HSD3. After 24 h, the cells were trypsinized and seeded on poly-L-lysine-coated 96-well plates (15 000 cells/well).
# (§2) The inhibitory activities were measured 24 h after seeding as follows: old medium was aspirated and replaced by 30 μL of charcoal-treated DMEM (cDMEM). Ten microliters of inhibitor dissolved in cDMEM into the respective concentration was added, and mixtures were preincubated at 37 °C for 20 min. 17β-HSD2 inhibitory activities were measured in the presence of 190 nM unlabeled estradiol and 10 nM radiolabeled estradiol. N-(3-Methoxyphenyl)-N-methyl-5-m-tolylthiophene-2-carboxamide (compound 19 in ref ([26])) was used as positive control. The reaction mixtures were incubated for 20 min, and the reactions were stopped by adding an excess of estradiol and estrone (1:1, 2 mM in methanol) to the mixture.
row,SMILES,17β-HSD2 inhibition in intact cells (in words)
1,Cc1cc(C)c(OCC(=O)N/N=C/c2ccc(O)cc2O)c(Br)c1 [Compound 11],concentration-dependently inhibited 17β-HSD2
2,O=S(=O)(Nc1ccc(O)c(Cl)c1)c1ccc(F)cc1 [Compound 13],concentration-dependently inhibited 17β-HSD2
3,O=C(CSc1nccc(O)n1)Nc1cccc2nsnc12 [Compound 15],concentration-dependently inhibited 17β-HSD2

# Biological target: T2, 11β-HSD1 (Homo sapiens, UniProt P28845)
# T2 construct: expressed in transfected cells
# Experiment: 11β-HSD1 activity in lysates of stably transfected cells
# Assay type: biochemical
# Settings: lysates
# Protocol: The methods to determine 11β-HSD1 and -2 activity were performed as described previously.[64] Briefly, lysates of stably transfected cells, expressing either 11β-HSD1 or 11β-HSD2, were incubated for 10 min at 37 °C in TS2 buffer in a final volume of 22 μL containing either solvent (0.2% DMSO) or the inhibitor at the respective concentration. The nonselective 11β-HSD inhibitor glycyrrhetinic acid was used as positive control. Activity measurements of 11β-HSD1 were performed with 190 nM unlabeled cortisone, 10 nM radiolabeled cortisone, and 500 μM NADPH. To measure 11β-HSD2 activity, lysates were incubated with 40 nM unlabeled cortisol, 10 nM radiolabeled cortisol, and 500 μM NAD^+. Reactions were stopped after 10 min by adding an excess of unlabeled cortisone and cortisol (1:1, 2 mM in methanol). The steroids were separated by TLC, followed by scintillation counting and calculation of substrate concentration. Data were collected from at least three independent measurements.
# T2 sequence (P28845 whole entry): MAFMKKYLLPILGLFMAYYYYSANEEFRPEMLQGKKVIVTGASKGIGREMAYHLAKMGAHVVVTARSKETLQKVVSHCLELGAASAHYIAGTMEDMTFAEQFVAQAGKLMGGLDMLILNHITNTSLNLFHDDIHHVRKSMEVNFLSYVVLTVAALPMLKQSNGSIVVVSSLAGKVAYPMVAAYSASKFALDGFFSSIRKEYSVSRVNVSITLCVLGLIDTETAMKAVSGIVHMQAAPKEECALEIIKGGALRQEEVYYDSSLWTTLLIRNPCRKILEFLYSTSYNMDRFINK
row,SMILES,11β-HSD1 versus 17β-HSD2 potency (in words)
1,COc1ccc(S(=O)(=O)Nc2ccc(O)c3c2CCCC3)cc1 [Compound 20],almost equipotent toward 17β-HSD2 and 11β-HSD1; also recorded: equipotent 17β-HSD2 and 11β-HSD1 inhibitors

# Biological target: T3, 17β-HSD3 (Homo sapiens, UniProt P37058)
# T3 construct: expressed in transfected cells; host or cells: HEK-293 (transient, calcium phosphate), intact cells
# T3 sequence (P37058 1-310): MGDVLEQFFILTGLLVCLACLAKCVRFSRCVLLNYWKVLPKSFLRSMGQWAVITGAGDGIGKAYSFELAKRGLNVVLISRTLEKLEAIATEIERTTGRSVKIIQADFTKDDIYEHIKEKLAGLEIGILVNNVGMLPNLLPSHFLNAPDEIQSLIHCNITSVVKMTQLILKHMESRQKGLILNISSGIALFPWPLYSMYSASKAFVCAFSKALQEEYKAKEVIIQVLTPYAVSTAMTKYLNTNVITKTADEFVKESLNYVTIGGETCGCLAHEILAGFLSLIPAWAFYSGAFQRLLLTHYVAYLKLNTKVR
# Experiment: 17β-HSD3 activity in intact transfected HEK-293 cells
# Assay type: cell-based
# Settings: intact cells
# Protocol: as §1, §2
# 17β-HSD3 inhibitory activities were measured in the presence of 190 nM unlabeled androstenedione and 10 nM radiolabeled androstenedione. Benzophenone-1 was used as positive control. The reaction mixtures were incubated for 30 min, and the reactions were stopped by adding an excess of androstenedione and testosterone (1:1, 2 mM in methanol). The steroids were separated by TLC, followed by scintillation counting and calculation of substrate concentration. Data was obtained from three independent measurements.
row,17β-HSD3 inhibition (in words),SMILES
1,equipotent toward these two enzymes,O=S(=O)(Nc1ccc(O)c(Cl)c1)c1ccc(F)cc1 [Compound 13]
2,weak 17β-HSD3 inhibitors,Cc1cc(C)c(S(=O)(=O)Nc2cccc(O)c2)cc1C [Compound 16]

row,SMILES,17β-HSD3 inhibition (in words)
1,Cc1cc(C)c(OCC(=O)N/N=C/c2ccc(O)cc2O)c(Br)c1 [Compound 11],more active against 17β-HSD3 than 17β-HSD2

# Same assay, conditions: rest activity at 20 μM, Table 3
row,17β-HSD3 intact inhibition class (n.i.),SMILES
1,n.i,COc1ccc(S(=O)(=O)Nc2ccc(O)c3c2CCCC3)cc1 [Compound 20]
2,n.i,O=S(=O)(Nc1cccc(O)c1)c1ccc(Br)cc1 [Compound 21]
3,n.i,Cc1ccc(NS(=O)(=O)c2cccc(Br)c2)cc1O [Compound 24]

# Test system: 17β-HSD2
# Experiment: not given
# Settings: Table S1; ref SI 1, 2, 4; read-out: IC50 17β-HSD2 (test set); cited from earlier work
row,SMILES,IC50 [nM]
1,Oc1ccc(-c2ccc3c(O)cccc3c2)cc1 [Compound 1],302
2,Cc1cccc(-c2ccc(C(=O)N(C)Cc3cccc(O)c3)s2)c1 [Compound 2],164
3,CN1C(=O)C[C@H](c2ccccc2)[C@@H]1[C@H](O)c1ccc(-c2cccnc2)s1 [Compound 3],50
4,COc1cccc(-c2ccc(C(=O)N(C)Cc3cccc(O)c3)s2)c1F [Compound 6],61
5,COc1ccc(-c2ccc(C(=O)N(C)Cc3cccc(O)c3)s2)cc1 [Compound 7],161
6,CN1C(=O)C[C@H](c2ccccc2F)[C@@H]1[C@H](O)c1ccc(-c2ccccc2)s1 [Compound 8],10

# Same assay, conditions: Table S1; ref SI 3; read-out: IC50 17β-HSD2 (test set); cited from earlier work
row,SMILES,IC50 [nM]
1,Oc1cccc(-c2ccnc(-c3ccc(Cl)s3)c2)c1 [Compound 4],470

# Same assay, conditions: at 1 µM, Table S1; ref SI 1, 2, 3, 5, 6; cited from earlier work
row,SMILES,17β-HSD2 enzyme inhibition (test set) [%]
1,Oc1cccc(-c2ccccc2)c1 [580-51-8],< 10
2,CS(=O)(=O)Nc1ccc(-c2ccc(O)cc2)cc1 [319015-65-1],< 10
3,CC(=O)Nc1cccc(-c2ccc(O)cc2)c1 [462660-26-0],< 10

# Same assay, conditions: at 10 µM, Table S1; ref SI 7, 10; cited from earlier work
row,SMILES,17β-HSD2 enzyme inhibition (test set) [%]
1,C[C@]12CC[C@@H]3c4ccc(O)cc4C(=O)C[C@H]3[C@@H]1CCC2=O [1476-34-2],< 10
